# In PubChem BioAssay AID1919000 (Molecular Pharmacology Branch, DTP, NCI, 2023):
# Test system: 653999-131-R-J2-PDC complex spheroids, growth % test/control
# Test: Anticancer human tumor 653999-131-R-J2-PDC patient-derived lung adenocarcinoma cell line growth inhibition [AhR]
# Conditions: for IC50: curve of first compound; for viability, T/C: stronger effect = lower value
# How it was run: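 Agents were dosed in half-log steps down from roughly clinical Cmax, or from 10 microM where Cmax was unknown, alone and with AhR antagonists. Read-out: percent test/control growth of tumor spheroids containing HUVEC and MSC stromal cells.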
# [1] = second compound 0.1 µM, first compound 0.000949 µM
# [2] = second compound 0.1 µM, first compound 0.003 µM
# [3] = second compound 0.1 µM, first compound 0.00949 µM
# [4] = second compound 0.1 µM, first compound 0.03 µM
# [5] = second compound 0.1 µM, first compound 0.0949 µM
# [6] = second compound 0.1 µM, first compound 0.3 µM
# [7] = second compound 0.316 µM, first compound 0.000949 µM
# [8] = second compound 0.316 µM, first compound 0.003 µM
# [9] = second compound 0.316 µM, first compound 0.00949 µM
# [10] = second compound 0.316 µM, first compound 0.03 µM
# [11] = second compound 0.316 µM, first compound 0.0949 µM
# [12] = second compound 0.316 µM, first compound 0.3 µM
# [13] = second compound 1 µM, first compound 0.000949 µM
# [14] = second compound 1 µM, first compound 0.003 µM
# [15] = second compound 1 µM, first compound 0.00949 µM
# [16] = second compound 1 µM, first compound 0.03 µM
# [17] = second compound 1 µM, first compound 0.0949 µM
# [18] = second compound 1 µM, first compound 0.3 µM
# [19] = second compound 3.16 µM, first compound 0.000949 µM
# [20] = second compound 3.16 µM, first compound 0.003 µM
# [21] = second compound 3.16 µM, first compound 0.00949 µM
# [22] = second compound 3.16 µM, first compound 0.03 µM
# [23] = second compound 3.16 µM, first compound 0.0949 µM
# [24] = second compound 3.16 µM, first compound 0.3 µM
# [25] = second compound 10 µM, first compound 0.000949 µM
# [26] = second compound 10 µM, first compound 0.003 µM
# [27] = second compound 10 µM, first compound 0.00949 µM
# [28] = second compound 10 µM, first compound 0.03 µM
# [29] = second compound 10 µM, first compound 0.0949 µM
# [30] = second compound 10 µM, first compound 0.3 µM
# [31] = second compound 0.1 µM, first compound 0.0316 µM
# [32] = second compound 0.1 µM, first compound 0.1 µM
# [33] = second compound 0.1 µM, first compound 0.316 µM
# [34] = second compound 0.1 µM, first compound 1 µM
# [35] = second compound 0.1 µM, first compound 3.16 µM
# [36] = second compound 0.1 µM, first compound 10 µM
# [37] = second compound 0.316 µM, first compound 0.0316 µM
# [38] = second compound 0.316 µM, first compound 0.1 µM
# [39] = second compound 0.316 µM, first compound 0.316 µM
# [40] = second compound 0.316 µM, first compound 1 µM
# [41] = second compound 0.316 µM, first compound 3.16 µM
# [42] = second compound 0.316 µM, first compound 10 µM
# [43] = second compound 1 µM, first compound 0.0316 µM
# [44] = second compound 1 µM, first compound 0.1 µM
# [45] = second compound 1 µM, first compound 0.316 µM
# [46] = second compound 1 µM, first compound 1 µM
# [47] = second compound 1 µM, first compound 3.16 µM
# [48] = second compound 1 µM, first compound 10 µM
# [49] = second compound 3.16 µM, first compound 0.0316 µM
# [50] = second compound 3.16 µM, first compound 0.1 µM
# [51] = second compound 3.16 µM, first compound 0.316 µM
# [52] = second compound 3.16 µM, first compound 1 µM
# [53] = second compound 3.16 µM, first compound 3.16 µM
# [54] = second compound 3.16 µM, first compound 10 µM
# [55] = second compound 10 µM, first compound 0.0316 µM
# [56] = second compound 10 µM, first compound 0.1 µM
# [57] = second compound 10 µM, first compound 0.316 µM
# [58] = second compound 10 µM, first compound 1 µM
# [59] = second compound 10 µM, first compound 3.16 µM
# [60] = second compound 10 µM, first compound 10 µM
# 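Further: spheroids exposed to agents for seven days.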
# 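Wherever viability, T/C is given: 100% = DMSO vehicle control viability.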
compound,measurement,setting,value
Nc1ncn(C2CC(O)C(CO)S2)c(=O)n1 (stereo not given) + Cc1ccccc1N=Nc1ccc(NC(=O)c2ccnn2C)c(C)c1,IC50,second compound 0.1 µM,> 0.3 µM
same,IC50,second compound 0.316 µM,> 0.3 µM
same,IC50,second compound 1 µM,> 0.3 µM
same,IC50,second compound 3.16 µM,> 0.3 µM
same,IC50,second compound 10 µM,> 0.3 µM
same,"viability, T/C",[1],96.4%
same,"viability, T/C",[2],98.8%
same,"viability, T/C",[3],98.2%
same,"viability, T/C",[4],101%
same,"viability, T/C",[5],95.3%
same,"viability, T/C",[6],85.8%
same,"viability, T/C",[7],98.6%
same,"viability, T/C",[8],105%
same,"viability, T/C",[9],105%
same,"viability, T/C",[10],105%
same,"viability, T/C",[11],92.8%
same,"viability, T/C",[12],95.4%
same,"viability, T/C",[13],107%
same,"viability, T/C",[14],102%
same,"viability, T/C",[15],109%
same,"viability, T/C",[16],109%
same,"viability, T/C",[17],88.2%
same,"viability, T/C",[18],88.7%
same,"viability, T/C",[19],102%
same,"viability, T/C",[20],100%
same,"viability, T/C",[21],95.1%
same,"viability, T/C",[22],94.4%
same,"viability, T/C",[23],95.8%
same,"viability, T/C",[24],82%
same,"viability, T/C",[25],101%
same,"viability, T/C",[26],103%
same,"viability, T/C",[27],110%
same,"viability, T/C",[28],95.6%
same,"viability, T/C",[29],107%
same,"viability, T/C",[30],103%
O=C(C=Cc1cccc(S(=O)(=O)Nc2ccccc2)c1)NO + CC(CO)NC(=O)c1cc(-c2ccc(Cl)cc2)nn(-c2cnn(C)c2)c1=O,IC50,second compound 0.1 µM,3.73 µM
same,IC50,second compound 0.316 µM,3.66 µM
same,IC50,second compound 1 µM,4.13 µM
same,IC50,second compound 3.16 µM,3.52 µM
same,IC50,second compound 10 µM,3.64 µM
same,"viability, T/C",[31],102%
same,"viability, T/C",[32],102%
same,"viability, T/C",[33],100%
same,"viability, T/C",[34],91.8%
same,"viability, T/C",[35],57.3%
same,"viability, T/C",[36],6.62%
same,"viability, T/C",[37],109%
same,"viability, T/C",[38],117%
same,"viability, T/C",[39],95.9%
same,"viability, T/C",[40],96.3%
same,"viability, T/C",[41],55%
same,"viability, T/C",[42],7.7%
same,"viability, T/C",[43],108%
same,"viability, T/C",[44],104%
same,"viability, T/C",[45],114%
same,"viability, T/C",[46],98.5%
same,"viability, T/C",[47],63.4%
same,"viability, T/C",[48],6.59%
same,"viability, T/C",[49],107%
same,"viability, T/C",[50],114%
same,"viability, T/C",[51],105%
same,"viability, T/C",[52],90.2%
same,"viability, T/C",[53],54.3%
same,"viability, T/C",[54],10.5%
same,"viability, T/C",[55],107%
same,"viability, T/C",[56],111%
same,"viability, T/C",[57],105%
same,"viability, T/C",[58],100%
same,"viability, T/C",[59],56.2%
same,"viability, T/C",[60],4.99%
Nc1ncn(C2CC(O)C(CO)S2)c(=O)n1 (stereo not given) + CC(CO)NC(=O)c1cc(-c2ccc(Cl)cc2)nn(-c2cnn(C)c2)c1=O,IC50,second compound 0.1 µM,> 0.3 µM
same,IC50,second compound 0.316 µM,> 0.3 µM
same,IC50,second compound 1 µM,> 0.3 µM
same,IC50,second compound 3.16 µM,> 0.3 µM
same,IC50,second compound 10 µM,> 0.3 µM
same,"viability, T/C",[1],101%
same,"viability, T/C",[2],117%
same,"viability, T/C",[3],111%
same,"viability, T/C",[4],103%
same,"viability, T/C",[5],97.3%
same,"viability, T/C",[6],84.8%
same,"viability, T/C",[7],106%
same,"viability, T/C",[8],121%
same,"viability, T/C",[9],134%
same,"viability, T/C",[10],100%
same,"viability, T/C",[11],104%
same,"viability, T/C",[12],88.1%
same,"viability, T/C",[13],119%
same,"viability, T/C",[14],115%
same,"viability, T/C",[15],110%
same,"viability, T/C",[16],103%
same,"viability, T/C",[17],110%
same,"viability, T/C",[18],84%
same,"viability, T/C",[19],121%
same,"viability, T/C",[20],101%
same,"viability, T/C",[21],104%
same,"viability, T/C",[22],121%
same,"viability, T/C",[23],101%
same,"viability, T/C",[24],96.4%
same,"viability, T/C",[25],117%
same,"viability, T/C",[26],120%
same,"viability, T/C",[27],127%
same,"viability, T/C",[28],127%
same,"viability, T/C",[29],116%
same,"viability, T/C",[30],103%
COc1ccc([C@@H](O)c2cc(-c3ncnc4cc(N5CCOCC5)ccc34)c(F)cc2Cl)nn1 + CC(CO)NC(=O)c1cc(-c2ccc(Cl)cc2)nn(-c2cnn(C)c2)c1=O,IC50,second compound 0.1 µM,8.45 µM
same,IC50,second compound 0.316 µM,7.79 µM
same,IC50,second compound 1 µM,8.13 µM
same,IC50,second compound 3.16 µM,7 µM
same,IC50,second compound 10 µM,6.94 µM
same,"viability, T/C",[31],91.5%
same,"viability, T/C",[32],86.9%
same,"viability, T/C",[33],85.4%
same,"viability, T/C",[34],73.6%
same,"viability, T/C",[35],63.9%
same,"viability, T/C",[36],47.6%
same,"viability, T/C",[37],89.9%
same,"viability, T/C",[38],90.2%
same,"viability, T/C",[39],87.8%
same,"viability, T/C",[40],80%
same,"viability, T/C",[41],66.8%
same,"viability, T/C",[42],45.2%
same,"viability, T/C",[43],90.4%
same,"viability, T/C",[44],95.4%
same,"viability, T/C",[45],95.2%
same,"viability, T/C",[46],84.5%
same,"viability, T/C",[47],65.4%
same,"viability, T/C",[48],46.6%
same,"viability, T/C",[49],96%
same,"viability, T/C",[50],96.8%
same,"viability, T/C",[51],100%
same,"viability, T/C",[52],77.4%
same,"viability, T/C",[53],60.3%
same,"viability, T/C",[54],45.4%
same,"viability, T/C",[55],90%
same,"viability, T/C",[56],95.3%
same,"viability, T/C",[57],90.8%
same,"viability, T/C",[58],75.3%
same,"viability, T/C",[59],59.5%
same,"viability, T/C",[60],45.6%
